Measured values: ChEMBL document CHEMBL6092162, “Identification of novel and potent triazoles targeting CYP51 for antifungal: Design, synthesis, and biological study” (Eur J Med Chem, 2024)
≈ marks a conversion by molar mass, not a printed value. One block for each compound: values may come before it.

Key:
Type in all cases: functional
Pichia kudriavzevii = experiment: Antifungal activity against Candida krusei GIM 2.1 assessed as inhibition of fungal growth by CLSI M27-A3 guidelines based method
Candida tropicalis = experiment: Antifungal activity against Candida tropicalis GIM 2.183 assessed as inhibition of fungal growth by CLSI M27-A3 guidelines based method
Candida parapsilosis = experiment: Antifungal activity against Candida parapsilosis GIM 2.190 assessed as inhibition of fungal growth by CLSI M27-A3 guidelines based method; conditions: Lodderomyces parapsilosis
Cryptococcus neoformans = experiment: Antifungal activity against Cryptococcus neoformans CGMCC 2.3161 assessed as inhibition of fungal growth by CLSI M27-A3 guidelines based method
Nakaseomyces glabratus = experiment: Antifungal activity against Candida glabrata assessed as inhibition of fungal growth by CLSI M27-A3 guidelines based method
Candida albicans [1] = experiment: Antifungal activity against Candida albicans SC5314 assessed as inhibition of fungal growth by CLSI M27-A3 guidelines based method
Candida albicans [2] = experiment: Antifungal activity against Candida albicans GIM 2.194 assessed as inhibition of fungal growth by CLSI M27-A3 guidelines based method

SMILES: CN(Cc1ccc(N2CCN(Cc3ccc(C(F)(F)F)cc3Br)CC2)cc1)CC(O)(Cn1cncn1)c1ccc(F)cc1F (centres undefined)
- MIC80 (Pichia kudriavzevii): 0.2 µg/mL (≈ 0.294 µM)
- MIC80 (Candida tropicalis): 0.025 µg/mL (≈ 0.0368 µM)
- MIC80 (Candida parapsilosis): 0.013 µg/mL (≈ 0.0191 µM)
- MIC80 (Cryptococcus neoformans): 0.2 µg/mL (≈ 0.294 µM)
- MIC80 (Nakaseomyces glabratus): 0.2 µg/mL (≈ 0.294 µM)
- MIC80 (Candida albicans [1]): 0.013 µg/mL (≈ 0.0191 µM)
- MIC80 (Candida albicans [2]): 0.025 µg/mL (≈ 0.0368 µM)

SMILES: CN(Cc1ccc(N2CCN(Cc3c(Cl)cccc3Br)CC2)cc1)CC(O)(Cn1cncn1)c1ccc(F)cc1F (centres undefined)
- MIC80 (Pichia kudriavzevii): 0.1 µg/mL (≈ 0.155 µM)
- MIC80 (Candida tropicalis): 0.006 µg/mL (≈ 0.00929 µM)
- MIC80 (Candida parapsilosis): 0.006 µg/mL (≈ 0.00929 µM)
- MIC80 (Nakaseomyces glabratus): 0.2 µg/mL (≈ 0.31 µM)
- MIC80 (Candida albicans [1]): 0.013 µg/mL (≈ 0.0201 µM)
- MIC80 (Candida albicans [2]): 0.025 µg/mL (≈ 0.0387 µM)

SMILES: CN(Cc1ccc(N2CCN(Cc3c(Br)cccc3Br)CC2)cc1)CC(O)(Cn1cncn1)c1ccc(F)cc1F (centres undefined)
- MIC80 (Pichia kudriavzevii): 0.1 µg/mL (≈ 0.145 µM)
- MIC80 (Candida tropicalis): 0.006 µg/mL (≈ 0.00869 µM)
- MIC80 (Candida parapsilosis): 0.006 µg/mL (≈ 0.00869 µM)
- MIC80 (Nakaseomyces glabratus): 0.1 µg/mL (≈ 0.145 µM)
- MIC80 (Candida albicans [1]): 0.013 µg/mL (≈ 0.0188 µM)
- MIC80 (Candida albicans [2]): 0.006 µg/mL (≈ 0.00869 µM)

SMILES: CC(C)N1CCN(c2ccc(CN(C)CC(O)(Cn3cncn3)c3ccc(F)cc3F)cc2)CC1 (centres undefined)
- MIC80 (Pichia kudriavzevii): > 32 µg/mL
- MIC80 (Candida tropicalis): 2 µg/mL (≈ 4.13 µM)
- MIC80 (Candida parapsilosis): 4 µg/mL (≈ 8.25 µM)
- MIC80 (Cryptococcus neoformans): > 32 µg/mL
- MIC80 (Nakaseomyces glabratus): > 32 µg/mL
- MIC80 (Candida albicans [1]): 4 µg/mL (≈ 8.25 µM)
- MIC80 (Candida albicans [2]): 8 µg/mL (≈ 16.5 µM)

SMILES: CN(Cc1ccc(N2CCN(Cc3cc(Br)ccc3Br)CC2)cc1)CC(O)(Cn1cncn1)c1ccc(F)cc1F (centres undefined)
- MIC80 (Pichia kudriavzevii): 0.1 µg/mL (≈ 0.145 µM)
- MIC80 (Candida tropicalis): 0.006 µg/mL (≈ 0.00869 µM)
- MIC80 (Candida parapsilosis): 0.006 µg/mL (≈ 0.00869 µM)
- MIC80 (Nakaseomyces glabratus): 0.1 µg/mL (≈ 0.145 µM)
- MIC80 (Candida albicans [1]): 0.013 µg/mL (≈ 0.0188 µM)
- MIC80 (Candida albicans [2]): 0.025 µg/mL (≈ 0.0362 µM)

SMILES: CN(Cc1ccc(N2CCN(Cc3ccc(S(C)(=O)=O)cc3)CC2)cc1)CC(O)(Cn1cncn1)c1ccc(F)cc1F (centres undefined)
- MIC80 (Pichia kudriavzevii): 3.2 µg/mL (≈ 5.24 µM)
- MIC80 (Candida tropicalis): 0.4 µg/mL (≈ 0.655 µM)
- MIC80 (Candida parapsilosis): 0.8 µg/mL (≈ 1.31 µM)
- MIC80 (Cryptococcus neoformans): 3.2 µg/mL (≈ 5.24 µM)
- MIC80 (Nakaseomyces glabratus): 3.2 µg/mL (≈ 5.24 µM)
- MIC80 (Candida albicans [1]): 0.4 µg/mL (≈ 0.655 µM)
- MIC80 (Candida albicans [2]): 0.8 µg/mL (≈ 1.31 µM)

SMILES: CN(Cc1ccc(N2CCN(Cc3c(F)cccc3Br)CC2)cc1)CC(O)(Cn1cncn1)c1ccc(F)cc1F (centres undefined)
- MIC80 (Pichia kudriavzevii): 0.1 µg/mL (≈ 0.159 µM)
- MIC80 (Candida tropicalis): 0.013 µg/mL (≈ 0.0207 µM)
- MIC80 (Candida parapsilosis): 0.013 µg/mL (≈ 0.0207 µM)
- MIC80 (Cryptococcus neoformans): 0.1 µg/mL (≈ 0.159 µM)
- MIC80 (Nakaseomyces glabratus): 0.2 µg/mL (≈ 0.318 µM)
- MIC80 (Candida albicans [1]): 0.013 µg/mL (≈ 0.0207 µM)
- MIC80 (Candida albicans [2]): 0.1 µg/mL (≈ 0.159 µM)

SMILES: CC(C)c1ccc(CN2CCN(c3ccc(CN(C)CC(O)(Cn4cncn4)c4ccc(F)cc4F)cc3)CC2)cc1 (centres undefined)
- MIC80 (Candida tropicalis): 0.25 µg/mL (≈ 0.435 µM)
- MIC80 (Candida parapsilosis): 0.013 µg/mL (≈ 0.0226 µM)
- MIC80 (Cryptococcus neoformans): 0.1 µg/mL (≈ 0.174 µM)
- MIC80 (Nakaseomyces glabratus): 0.4 µg/mL (≈ 0.696 µM)
- MIC80 (Candida albicans [1]): 0.013 µg/mL (≈ 0.0226 µM)
- MIC80 (Candida albicans [2]): 0.013 µg/mL (≈ 0.0226 µM)

SMILES: CN(Cc1ccc(N2CCN(Cc3ccc(Br)cc3Br)CC2)cc1)CC(O)(Cn1cncn1)c1ccc(F)cc1F (centres undefined)
- MIC80 (Pichia kudriavzevii): 0.1 µg/mL (≈ 0.145 µM)
- MIC80 (Candida tropicalis): 0.006 µg/mL (≈ 0.00869 µM)
- MIC80 (Candida parapsilosis): 0.006 µg/mL (≈ 0.00869 µM)
- MIC80 (Nakaseomyces glabratus): 0.1 µg/mL (≈ 0.145 µM)
- MIC80 (Candida albicans [1]): 0.013 µg/mL (≈ 0.0188 µM)
- MIC80 (Candida albicans [2]): 0.013 µg/mL (≈ 0.0188 µM)

Next, values leading:

- MIC80 (Pichia kudriavzevii): 0.1 µg/mL (≈ 0.152 µM)
- MIC80 (Candida tropicalis): 0.05 µg/mL (≈ 0.0759 µM)
- MIC80 (Candida parapsilosis): 0.1 µg/mL (≈ 0.152 µM)
- MIC80 (Cryptococcus neoformans): 0.1 µg/mL (≈ 0.152 µM)
- MIC80 (Nakaseomyces glabratus): 0.2 µg/mL (≈ 0.304 µM)
- MIC80 (Candida albicans [1]): 0.025 µg/mL (≈ 0.038 µM)
- MIC80 (Candida albicans [2]): 0.013 µg/mL (≈ 0.0197 µM)
SMILES: CN(Cc1ccc(N2CCN(Cc3ccc(I)cc3)CC2)cc1)CC(O)(Cn1cncn1)c1ccc(F)cc1F (centres undefined)

- MIC80 (Pichia kudriavzevii): 0.4 µg/mL (≈ 0.751 µM)
- MIC80 (Candida tropicalis): 0.013 µg/mL (≈ 0.0244 µM)
- MIC80 (Candida parapsilosis): 0.025 µg/mL (≈ 0.0469 µM)
- MIC80 (Cryptococcus neoformans): 0.2 µg/mL (≈ 0.375 µM)
- MIC80 (Nakaseomyces glabratus): 0.4 µg/mL (≈ 0.751 µM)
- MIC80 (Candida albicans [1]): 0.013 µg/mL (≈ 0.0244 µM)
- MIC80 (Candida albicans [2]): 0.013 µg/mL (≈ 0.0244 µM)
SMILES: CN(Cc1ccc(N2CCN(Cc3ccccc3)CC2)cc1)CC(O)(Cn1cncn1)c1ccc(F)cc1F (centres undefined)

- MIC80 (Pichia kudriavzevii): 0.1 µg/mL (≈ 0.176 µM)
- MIC80 (Candida tropicalis): 0.013 µg/mL (≈ 0.0229 µM)
- MIC80 (Candida parapsilosis): 0.006 µg/mL (≈ 0.0106 µM)
- MIC80 (Cryptococcus neoformans): 0.1 µg/mL (≈ 0.176 µM)
- MIC80 (Nakaseomyces glabratus): 0.2 µg/mL (≈ 0.353 µM)
- MIC80 (Candida albicans [1]): 0.025 µg/mL (≈ 0.0441 µM)
- MIC80 (Candida albicans [2]): 0.013 µg/mL (≈ 0.0229 µM)
SMILES: CN(Cc1ccc(N2CCN(Cc3cccc(Cl)c3)CC2)cc1)CC(O)(Cn1cncn1)c1ccc(F)cc1F (centres undefined)

- MIC80 (Pichia kudriavzevii): 3.2 µg/mL (≈ 5.75 µM)
- MIC80 (Candida tropicalis): 0.1 µg/mL (≈ 0.18 µM)
- MIC80 (Candida parapsilosis): 0.4 µg/mL (≈ 0.719 µM)
- MIC80 (Cryptococcus neoformans): 3.2 µg/mL (≈ 5.75 µM)
- MIC80 (Nakaseomyces glabratus): 3.2 µg/mL (≈ 5.75 µM)
- MIC80 (Candida albicans [1]): 0.1 µg/mL (≈ 0.18 µM)
- MIC80 (Candida albicans [2]): 0.2 µg/mL (≈ 0.359 µM)
SMILES: C#Cc1ccc(CN2CCN(c3ccc(CN(C)CC(O)(Cn4cncn4)c4ccc(F)cc4F)cc3)CC2)cc1 (centres undefined)

- MIC80 (Pichia kudriavzevii): 0.2 µg/mL (≈ 0.329 µM)
- MIC80 (Candida tropicalis): 0.013 µg/mL (≈ 0.0214 µM)
- MIC80 (Candida parapsilosis): 0.025 µg/mL (≈ 0.0411 µM)
- MIC80 (Cryptococcus neoformans): 0.3 µg/mL (≈ 0.493 µM)
- MIC80 (Nakaseomyces glabratus): 0.4 µg/mL (≈ 0.657 µM)
- MIC80 (Candida albicans [1]): 0.025 µg/mL (≈ 0.0411 µM)
- MIC80 (Candida albicans [2]): 0.025 µg/mL (≈ 0.0411 µM)
SMILES: CN(Cc1ccc(N2CCN(Cc3ccc(-c4ccccc4)cc3)CC2)cc1)CC(O)(Cn1cncn1)c1ccc(F)cc1F (centres undefined)

- MIC80 (Pichia kudriavzevii): 0.8 µg/mL (≈ 1.46 µM)
- MIC80 (Candida tropicalis): 0.2 µg/mL (≈ 0.366 µM)
- MIC80 (Candida parapsilosis): 0.4 µg/mL (≈ 0.732 µM)
- MIC80 (Cryptococcus neoformans): 3.2 µg/mL (≈ 5.85 µM)
- MIC80 (Nakaseomyces glabratus): 1.6 µg/mL (≈ 2.93 µM)
- MIC80 (Candida albicans [1]): 0.2 µg/mL (≈ 0.366 µM)
- MIC80 (Candida albicans [2]): 0.2 µg/mL (≈ 0.366 µM)
SMILES: Cc1ccc(CN2CCN(c3ccc(CN(C)CC(O)(Cn4cncn4)c4ccc(F)cc4F)cc3)CC2)cc1 (centres undefined)

- MIC80 (Pichia kudriavzevii): 0.2 µg/mL (≈ 0.363 µM)
- MIC80 (Candida tropicalis): 0.1 µg/mL (≈ 0.182 µM)
- MIC80 (Candida parapsilosis): 0.2 µg/mL (≈ 0.363 µM)
- MIC80 (Cryptococcus neoformans): 0.8 µg/mL (≈ 1.45 µM)
- MIC80 (Nakaseomyces glabratus): 0.8 µg/mL (≈ 1.45 µM)
- MIC80 (Candida albicans [1]): 0.1 µg/mL (≈ 0.182 µM)
- MIC80 (Candida albicans [2]): 0.05 µg/mL (≈ 0.0908 µM)
SMILES: CN(Cc1ccc(N2CCN(Cc3ccc(F)cc3)CC2)cc1)CC(O)(Cn1cncn1)c1ccc(F)cc1F (centres undefined)

- MIC80 (Pichia kudriavzevii): 0.4 µg/mL (≈ 0.692 µM)
- MIC80 (Candida tropicalis): 0.025 µg/mL (≈ 0.0433 µM)
- MIC80 (Candida parapsilosis): 0.025 µg/mL (≈ 0.0433 µM)
- MIC80 (Cryptococcus neoformans): 0.1 µg/mL (≈ 0.173 µM)
- MIC80 (Nakaseomyces glabratus): 1.6 µg/mL (≈ 2.77 µM)
- MIC80 (Candida albicans [1]): 0.025 µg/mL (≈ 0.0433 µM)
- MIC80 (Candida albicans [2]): 0.05 µg/mL (≈ 0.0866 µM)
SMILES: CN(Cc1ccc(N2CCN(Cc3ccc([N+](=O)[O-])cc3)CC2)cc1)CC(O)(Cn1cncn1)c1ccc(F)cc1F (centres undefined)
